Ends that are not written are not given here.
What was measured:
rat aortic rings = assay: Isolated rat aorta assay (organ bath, aortic rings); conditions: organ bath system
Method: Segments of endothelium intact rat aorta were trim cleaned of fat and surrounding connective tissues and aortic rings strung up in 5 ml organ baths and perfused with oxygenated modified Kreb's solution (118 mM NaCl, 4.7 mM KCl, 25 mM NaHCO3, 11.1 mM glucose, 1.18 mM KH2PO4, 1.18 mM MgSO4 and 2mM CaCl2). Following an equilibration period of approximately 60 min, tissues were challenged with 1 μM phenylephrine (PE). Following a stable response tissues were washed and the above dose of PE was repeated. Once the tissues reached a maximum response 1 μM acetylcholine was administered to determine the percentage of endothelium dependent relaxation. Tissues were washed and cumulative concentration response curves were constructed to Kiss-1 and urotensin-II for a comparison. […] The potential for Kiss-1 mediated vasorelaxation was assessed in aortic rings pre-constricted with 300 nM noradrenaline along with appropriate control tissues with no drug. Drug potency (EC50) and efficacy (Emax) was determined.
Rat aortic rings are set up as described before for measuring Kiss-1 potency and efficacy in a 5 ml organ bath set-up. The potency of antagonist can be determined by constructing a dose response curve to Kiss-1 in the presence of a single concentration of Kiss-1 antagonist or vehicle. […]

GPR54 = GPR54 (Homo sapiens, UniProt Q969F8); conditions: cited from earlier work
[1] = tested on: CHO cells transfected with GPR54; conditions: cited from earlier work

GPR54, sequence (Q969F8 whole entry, species assumed): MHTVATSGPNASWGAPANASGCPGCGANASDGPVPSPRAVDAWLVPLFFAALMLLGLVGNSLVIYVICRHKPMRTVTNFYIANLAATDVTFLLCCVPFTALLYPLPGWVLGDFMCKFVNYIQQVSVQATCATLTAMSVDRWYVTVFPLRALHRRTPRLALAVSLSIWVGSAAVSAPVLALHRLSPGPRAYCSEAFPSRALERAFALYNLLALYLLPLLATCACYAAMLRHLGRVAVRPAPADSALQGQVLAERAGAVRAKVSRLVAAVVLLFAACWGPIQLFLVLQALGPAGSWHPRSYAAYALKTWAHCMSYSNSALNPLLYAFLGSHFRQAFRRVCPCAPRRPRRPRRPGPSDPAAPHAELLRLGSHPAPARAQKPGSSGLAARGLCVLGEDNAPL

Row | Substance | vasoconstriction (rat aortic rings) | agonist activity at GPR54 (GPR54) | migration, chemotaxis and invasion [1]
1 | Kiss-1 (45-54): C-terminal fragment of Kiss-1, derived from the 54 amino acid Kiss peptide sequence; Kiss-1 receptor agonist (YNWNSFGLRF-NH2; UniProt Q15726 112-121, looked up, fragment) | vasoconstriction |  | 
2 | Kiss-1 (40-54): C-terminal fragment of Kiss-1 (KDLPNYNWNSFGLRF-NH2; UniProt Q15726 107-121, looked up, fragment) |  | potent agonists | 
3 | Kiss-1: carboxy-terminally amidated peptide with 54 amino acid residues, also called metastin, isolated from human placenta (GTSLSPPPESSGSPQQPGLSAPHSRQIPAPQGAVLVQREKDLPNYNWNSFGLRF-NH2; UniProt Q15726 68-121, looked up) | potent vasoconstrictor | potent agonists | inhibits migration, chemotaxis and invasion

— patent US20040229933A1, “Treatment of hypertension” (Pfizer Inc, priority 2003, published 2004)
